± gives the expanded uncertainty stated by the source.

The conditions of this series: Crystal; visual observation.
As for `CCCCCCCCCCCCCCCC` [hexadecane], the Normal melting temperature was determined as 18.4 ± 0.4 °C.

As for `CCCCCCCCCCCCCCCCCC` [octadecane], the Normal melting temperature came out at 28.5 ± 0.4 °C. As to `CCCCCCCCCCCCCC` [tetradecane], the Normal melting temperature is 6.2 ± 0.4 °C.

Values taken from the NIST ThermoML archive (doi:10.1016/j.fluid.2014.12.036).
